What was measured:
[1] = Inhibition of Escherichia coli DXR
[2] = test system: Plasmodium falciparum; experiment: Antimalarial activity against Plasmodium falciparum 3D7 in infected human erythrocytes after 48 hrs; assay type: functional, organism-based; conditions: 3D7, 48 h

SMILES | IC50 [1] [µM] | IC50 [2] [µM]
O=C(COCP(=O)(O)O)NO | > 3 | –
CN(O)C(=O)CCCP(=O)(O)O | 0.097 | 0.98
CC(=O)N(O)COCP(=O)(O)O | 0.087 | 0.36
CC(=O)N(O)CCCP(=O)(OCOC(=O)C(C)(C)C)OCOC(=O)C(C)(C)C | > 30 | 0.099
CN(O)C(=O)COCP(=O)(O)O | 0.072 | 0.24
O=CN(O)COCP(=O)(O)O | 1.11 | 4.9
CN(O)C(=O)OCCP(=O)(O)O | 3 | –
O=C(NO)OCCP(=O)(O)O | > 3 | –
CN(O)C(=O)COCP(=O)(OCOC(=O)C(C)(C)C)OCOC(=O)C(C)(C)C [BIS(PIVALOYLOXYMETHYL)ESTER] | > 30 | 0.051
O=CN(O)CCCP(=O)(O)O [FOSMIDOMYCIN] | 0.054 | 1.2
CC(=O)N(O)CCCP(=O)(O)O [FR-900098] | 0.062 | 0.43

Reference: ChEMBL document CHEMBL1143891, “Synthesis of beta- and gamma-oxa isosteres of fosmidomycin and FR900098 as antimalarial candidates” (Bioorg Med Chem, 2008)
